Legend:
EoL-1 cells = assay: Cytotoxicity assay (CellTiter-Glo 2.0) on EoL-1 cells; format: cell-based, Human; conditions: incubation 1 day; for IC50: Homo sapiens, EOL1, 24 h
Method: (§1) Cytotoxicity assays consist in treating cells with compounds and assessing remaining viability after a defined incubation time, depending on the cell line. CellTiter-Glo® 2.0 reagent allows viability measurement by quantification of ATP present, which is an indicator of metabolically active cells.
(§2) The cancer cell lines were cultivated in their respective growth medium (see tables 6a and 6b). On day 0 of the cytotoxicity assay, the cells were harvested and seeded into a 384-well plate at a defined density in their respective growth medium (see tables 6a and 6b). Compounds to be tested were then added onto the cells and incubated for a defined duration (see tables 6a and 6b). Following incubation, CellTiter-Glo® 2.0 reagent (cat.no. G9241 from Promega) was added into the wells (vol/vol, according to the manufacturer's recommendations), plates were gently shaken and incubated for 10 minutes in the dark at room temperature. Bioluminescence was then measured with a multimode plate reader (Victor Nivo from Perkin Elmer), and cell viability and relative IC50 were determined. Table 6a: Cancer cell characteristics, culture and cytotoxic assay conditions

HUVECs = assay: Tube formation assay (anti-angiogenic activity); format: cell-based, human; conditions: for IC50: Homo sapiens, HUVEC
Excerpt: Angiogenesis is a phenomenon that includes different processes, such as endothelial cell proliferation, migration and differentiation that lead to the formation of new blood vessels. Tube formation assay is a standard in vitro test to assess angiogenesis: briefly, human Umbilical Vein Endothelial cells (hereafter "HUVECs") cultivated on a gelled basement matrix spontaneously proliferate, migrate and differentiate to form tube-like structures, that appear elongated and that connect to each other to form a network.
HUVECs were cultivated in Endothelial Cell Growth Medium (cat.no. C-22010 from Promocell) supplemented with 1% PenStrep (hereafter "HUVEC medium"). On day 0, HUVECs were harvested and transferred into a 384-well plate precoated with 10 µl/well of Cultrex UltiMatrix Reduced Growth factor basement membrane (cat.no. BME001-10 from BioTechne), according to the manufacturer's instructions, at a density of 5000 cells/well in HUVEC medium. Compounds to be tested were then added onto the cells and incubated for 16 to 18 hours at 37°C. After this incubation period, the cells were stained with calcein-AM (cat.no. 10462052 from Fisher Scientific) and pictures were acquired using a confocal fluorescent microscope (IXM from Molecular Devices). Tube formation was measured with MetaXpress® Software.

MDA-MB-231 cells = assay: Cytotoxicity assay (CellTiter-Glo 2.0) on MDA-MB-231 cells; format: cell-based, Human; conditions: incubation 3 days; for IC50: Homo sapiens, 72 h
Method: as §1, §2

RD cells = assay: Cytotoxicity assay (CellTiter-Glo 2.0) on RD cells; format: cell-based, Human; conditions: for IC50: Homo sapiens
Method: as §1, §2

4T1 cells = assay: Cytotoxicity assay (CellTiter-Glo 2.0) on 4T1 cells; format: cell-based, Mouse; conditions: incubation 2 days; for IC50: Mus musculus, 48 h
Method: as §1, §2

`CSc1cc(Oc2ccnc3c2OCC(=O)N3)ccc1NC(=O)Nc1ncc(C(C)(C)C)o1` [Compound 025] was tested, and the IC50 (EoL-1 cells) was under 1 nM and the Cytotoxicity (EoL-1 cells) was “+++ (cytotoxicity ≥ 85%)”.

With `CSc1cc(Oc2ccnc3c2CCC(=O)N3)ccc1NC(=O)Nc1cc(C(C)(C)C)nn1-c1ccc(CN(C)C)cc1` [Compound 046, 1-[5-tert-butyl-2-[4-(dimethylaminomethyl)phenyl]pyrazol-3-yl]-3-[2-methylsulfanyl-4-[(7-oxo-6,8-dihydro-5H-1,8-naphthyridin-4-yl)oxy]phenyl]urea] the IC50 (EoL-1 cells) was under 1 nM, the Cytotoxicity (EoL-1 cells) was “+++ (cytotoxicity ≥ 85%)” and the IC50 (HUVECs; incubation 16 to 18 hours) was under 100 nM. For the same compound, the Angiogenesis inhibition (HUVECs; incubation 16 to 18 hours) was “+++ (angiogenesis inhibition ≥ 80%)”, the IC50 (MDA-MB-231 cells) was 1 to 5 µM and the Cytotoxicity (MDA-MB-231 cells) was “+++ (cytotoxicity ≥ 85%)”. For the same compound, the Cytotoxicity (RD cells; 2 day-treatment) was “+++ (cytotoxicity ≥ 85%)”, the Cytotoxicity (RD cells; 4 day-treatment) was “+++ (cytotoxicity ≥ 85%)” and the IC50 (RD cells; 48 h, 2 day-treatment) was 5 to 10 µM. The IC50 (RD cells; 96 h, 4 day-treatment) was 1 to 5 µM, the IC50 (4T1 cells) was under 1000 nM and the Cytotoxicity (4T1 cells) was “+++ (cytotoxicity ≥ 85%)”.

`CC(C)(C)c1cc(NC(=O)Nc2ccc(Oc3ccnc4c3CCC(=O)N4)c3ccccc23)on1` [Compound 009, 1-(3-(tert-butyl)isoxazol-5-yl)-3-(4-((7-oxo-5,6,7,8-tetrahydro-1,8-naphthyridin-4-yl)oxy)naphthalen-1-yl)urea] was tested, and the IC50 (EoL-1 cells) was 1 to 10 nM, the Cytotoxicity (EoL-1 cells) was “+++ (cytotoxicity ≥ 85%)” and the IC50 (HUVECs; incubation 16 to 18 hours) was under 100 nM. The Angiogenesis inhibition (HUVECs; incubation 16 to 18 hours) was “+++ (angiogenesis inhibition ≥ 80%)”, the IC50 (MDA-MB-231 cells) was under 1 µM and the Cytotoxicity (MDA-MB-231 cells) was “++ (50% ≤ cytotoxicity < 85%)”. The Cytotoxicity (RD cells; 2 day-treatment) was “++ (50% ≤ cytotoxicity < 85%)”, the Cytotoxicity (RD cells; 4 day-treatment) was “++ (50% ≤ cytotoxicity < 85%)” and the IC50 (RD cells; 48 h, 2 day-treatment) was 1 to 5 µM. For the same compound, the IC50 (RD cells; 96 h, 4 day-treatment) was 1 to 5 µM, the IC50 (4T1 cells) was under 1000 nM and the Cytotoxicity (4T1 cells) was “+++ (cytotoxicity ≥ 85%)”.

With `CSc1cc(Oc2ccnc3c2CCC(=O)N3)ccc1NC(=O)Nc1cc(C(C)(C)C)nn1-c1cccc(CN(C)C)c1` [Compound 050, 1-[5-tert-butyl-2-[3-(dimethylaminomethyl)phenyl]pyrazol-3-yl]-3-[2-methylsulfanyl-4-[(7-oxo-6,8-dihydro-5H-1,8-naphthyridin-4-yl)oxy]phenyl]urea] the IC50 (EoL-1 cells) was 1 to 10 nM, the Cytotoxicity (EoL-1 cells) was “+++ (cytotoxicity ≥ 85%)” and the IC50 (HUVECs; incubation 16 to 18 hours) was under 100 nM. The Angiogenesis inhibition (HUVECs; incubation 16 to 18 hours) was “+++ (angiogenesis inhibition ≥ 80%)”, the IC50 (MDA-MB-231 cells) was 1 to 5 µM and the Cytotoxicity (MDA-MB-231 cells) was “+++ (cytotoxicity ≥ 85%)”. The Cytotoxicity (RD cells; 2 day-treatment) was “+++ (cytotoxicity ≥ 85%)”, the Cytotoxicity (RD cells; 4 day-treatment) was “+++ (cytotoxicity ≥ 85%)” and the IC50 (RD cells; 48 h, 2 day-treatment) was 1 to 5 µM. The IC50 (RD cells; 96 h, 4 day-treatment) was 1 to 5 µM, the IC50 (4T1 cells) was under 1000 nM and the Cytotoxicity (4T1 cells) was “+++ (cytotoxicity ≥ 85%)”.

In the case of `CSc1cc(Oc2ccnc3c2OCC(=O)N3)ccc1NC(=O)Nc1cc(C(C)(C)C)nn1-c1ccc(CN2CCN(C)CC2)cc1` [Compound 054, 1-[5-tert-butyl-2-[4-[(4-methylpiperazin-1-yl)methyl]phenyl]pyrazol-3-yl]-3-[2-methylsulfanyl-4-[(3-oxo-4H-pyrido[3,2-b][1,4]oxazin-8-yl)oxy]phenyl]urea], the IC50 (EoL-1 cells) is reported as 1 to 10 nM, the Cytotoxicity (EoL-1 cells) is reported as “+++ (cytotoxicity ≥ 85%)” and the IC50 (HUVECs; incubation 16 to 18 hours) is reported as under 100 nM. For the same compound, the Angiogenesis inhibition (HUVECs; incubation 16 to 18 hours) was “+++ (angiogenesis inhibition ≥ 80%)”, the IC50 (MDA-MB-231 cells) was 1 to 5 µM and the Cytotoxicity (MDA-MB-231 cells) was “+++ (cytotoxicity ≥ 85%)”. For the same compound, the Cytotoxicity (RD cells; 2 day-treatment) was “+++ (cytotoxicity ≥ 85%)”, the Cytotoxicity (RD cells; 4 day-treatment) was “+++ (cytotoxicity ≥ 85%)” and the IC50 (RD cells; 48 h, 2 day-treatment) was 1 to 5 µM. For the same compound, the IC50 (RD cells; 96 h, 4 day-treatment) was 1 to 5 µM, the IC50 (4T1 cells) was 1000 to 5000 nM and the Cytotoxicity (4T1 cells) was “+++ (cytotoxicity ≥ 85%)”.

With `CC(C)(C)c1cc(NC(=O)Nc2ccc(Oc3ccnc4c3CCC(=O)N4)cc2C(F)(F)F)n(-c2ccc(F)cc2F)n1` [Compound 029, 1-[5-tert-butyl-2-(2,4-difluorophenyl)pyrazol-3-yl]-3-[4-[(7-oxo-6,8-dihydro-5H-1,8-naphthyridin-4-yl)oxy]-2-(trifluoromethyl)phenyl]urea] the IC50 (EoL-1 cells) was 10 to 100 nM, the Cytotoxicity (EoL-1 cells) was “+++ (cytotoxicity ≥ 85%)” and the IC50 (HUVECs; incubation 16 to 18 hours) was 100 to 500 nM. The Angiogenesis inhibition (HUVECs; incubation 16 to 18 hours) was “++ (80% > angiogenesis inhibition ≥ 50%)”, the IC50 (MDA-MB-231 cells) was 5 to 10 µM and the Cytotoxicity (MDA-MB-231 cells) was “+ (20 % ≤ cytotoxicity < 50%)”. The IC50 (4T1 cells) was 1000 to 5000 nM and the Cytotoxicity (4T1 cells) was “++ (50% ≤ cytotoxicity < 85%)”.

For `CSc1cc(Oc2ccnc3c2CCC(=O)N3)ccc1NC(=O)Nc1cc(C(C)(C)C)nn1-c1cccc(Cl)c1` [Compound 003, 1-(3-(tert-butyl)-1-(3-chlorophenyl)-1H-pyrazol-5-yl)-3-(2-(methylthio)-4-((7-oxo-5,6,7,8-tetrahydro-1,8-naphthyridin-4-yl)oxy)phenyl)urea], the IC50 (MDA-MB-231 cells) was 1 to 5 µM, the Cytotoxicity (MDA-MB-231 cells) was “++ (50% ≤ cytotoxicity < 85%)” and the Cytotoxicity (RD cells; 2 day-treatment) was “+ (20 % ≤ cytotoxicity < 50%)”. For the same compound, the Cytotoxicity (RD cells; 4 day-treatment) was “+ (20 % ≤ cytotoxicity < 50%)”, the IC50 (RD cells; 48 h, 2 day-treatment) was 1 to 5 µM and the IC50 (RD cells; 96 h, 4 day-treatment) was 5 to 10 µM. For the same compound, the IC50 (4T1 cells) was under 1000 nM and the Cytotoxicity (4T1 cells) was “+++ (cytotoxicity ≥ 85%)”.

In the case of `COc1cc2nccc(Oc3ccc(NC(=O)Nc4cc(C)on4)c(Cl)c3)c2cc1OC` [Tivozanib, reference compound], the IC50 (HUVECs; commercial kinase inhibitors) is reported as 100 to 500 nM, the Angiogenesis inhibition (HUVECs; commercial kinase inhibitors) is reported as “+ (50% > angiogenesis inhibition ≥ 20%)” and the IC50 (MDA-MB-231 cells; commercial kinase inhibitors) is reported as 5 to 10 µM. For the same compound, the Cytotoxicity (MDA-MB-231 cells; commercial kinase inhibitors) was “++ (50 % ≤ cytotoxicity < 85 %)”, the Cytotoxicity (RD cells; 2 day-treatment, commercial kinase inhibitors) was “- (cytotoxicity < 20 %)” and the Cytotoxicity (RD cells; 4 day-treatment, commercial kinase inhibitors) was “- (cytotoxicity < 20 %)”. The IC50 (RD cells; 48 h, 2 day-treatment, commercial kinase inhibitors) was at least 10 µM, the IC50 (RD cells; 96 h, 4 day-treatment, commercial kinase inhibitors) was at least 10 µM and the IC50 (4T1 cells; commercial kinase inhibitors) was 5000 to 10000 nM. The Cytotoxicity (4T1 cells; commercial kinase inhibitors) was “+++ (cytotoxicity ≥ 85 %)”.

With `CC(C)(C)c1coc(NC(=O)Nc2ccc(Oc3ccnc4c3CCC(=O)N4)cc2C(F)(F)F)n1` [Compound 036] the IC50 (EoL-1 cells) was at least 100 nM, the Cytotoxicity (EoL-1 cells) was “+ (20 % ≤ cytotoxicity < 50%)” and the IC50 (MDA-MB-231 cells) was 5 to 10 µM. For the same compound, the Cytotoxicity (MDA-MB-231 cells) was “+ (20 % ≤ cytotoxicity < 50%)”, the Cytotoxicity (RD cells; 2 day-treatment) was “+ (20 % ≤ cytotoxicity < 50%)” and the Cytotoxicity (RD cells; 4 day-treatment) was “- (cytotoxicity < 20%)”. The IC50 (RD cells; 48 h, 2 day-treatment) was 1 to 5 µM, the IC50 (RD cells; 96 h, 4 day-treatment) was 1 to 5 µM and the IC50 (4T1 cells) was at least 10000 nM. For the same compound, the Cytotoxicity (4T1 cells) was “- (cytotoxicity < 20%)”.

With `COc1cc2nccc(Oc3ccc(NC(=O)NC4CC4)c(Cl)c3)c2cc1C(N)=O` [Lenvatinib, reference compound] the IC50 (EoL-1 cells; commercial kinase inhibitors) was 1 to 10 nM, the Cytotoxicity (EoL-1 cells; commercial kinase inhibitors) was “+++ (cytotoxicity ≥ 85%)” and the IC50 (HUVECs; commercial kinase inhibitors) was under 100 nM. The Angiogenesis inhibition (HUVECs; commercial kinase inhibitors) was “++ (80% > angiogenesis inhibition ≥ 50%)”, the IC50 (MDA-MB-231 cells; commercial kinase inhibitors) was at least 10 µM and the Cytotoxicity (MDA-MB-231 cells; commercial kinase inhibitors) was “- (cytotoxicity < 20 %)”. For the same compound, the IC50 (4T1 cells; commercial kinase inhibitors) was 1000 to 5000 nM and the Cytotoxicity (4T1 cells; commercial kinase inhibitors) was “+ (20 % ≤ cytotoxicity < 50 %)”.

`CC(C)(C)c1cc(NC(=O)Nc2ccc(Oc3ccnc4c3OCC(=O)N4)cc2C(F)(F)F)n(-c2ccc(CCN3CCOCC3)cc2)n1` [Compound 053, 1-[5-tert-butyl-2-[4-(2-morpholinoethyl)phenyl]pyrazol-3-yl]-3-[4-[(3-oxo-4H-pyrido[3,2-b][1,4]oxazin-8-yl)oxy]-2-(trifluoromethyl)phenyl]urea] was tested, and the IC50 (EoL-1 cells) was 10 to 100 nM, the Cytotoxicity (EoL-1 cells) was “+++ (cytotoxicity ≥ 85%)” and the IC50 (HUVECs; incubation 16 to 18 hours) was under 100 nM. The Angiogenesis inhibition (HUVECs; incubation 16 to 18 hours) was “+++ (angiogenesis inhibition ≥ 80%)”, the IC50 (MDA-MB-231 cells) was 1 to 5 µM and the Cytotoxicity (MDA-MB-231 cells) was “++ (50% ≤ cytotoxicity < 85%)”. For the same compound, the IC50 (4T1 cells) was under 1000 nM and the Cytotoxicity (4T1 cells) was “+++ (cytotoxicity ≥ 85%)”.

For `Cc1ccc(F)c(NC(=O)Nc2ccc(-c3cccc4[nH]nc(N)c34)cc2)c1` [Linifanib, reference compound], the IC50 (HUVECs; commercial kinase inhibitors) was under 100 nM and the Angiogenesis inhibition (HUVECs; commercial kinase inhibitors) was “+ (50% > angiogenesis inhibition ≥ 20%)”.
